Several values for one entry are separate records, joined by “and”; a condition that tells them apart may be missing. Equal values may be shown once.
What was measured:
SfurOBP1 = SfurOBP1 (Sogatella furcifera, UniProt V5T8N5); assay: biochemical; type: binding; conditions: for Fluorescence competitive binding assay, fluorescence intensity: OBP1, three replicate columns
Summary of the method: (§1)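 Fluorescence competitive binding with 1-NPN as reporter: 2.0 µM protein and 2.0 µM 1-NPN in 50 mM Tris-HCl pH 7.4, odorant added at 2–20 µM final. Excitation 337 nm, emission 390–490 nm read 2 min after addition, triplicates. Ki = IC50/(1 + [1-NPN]/K1-NPN).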

SfurOBP11 = SfurOBP11 (Sogatella furcifera, UniProt V5T6E3); assay: biochemical; type: binding
Summary of the method: as §1

SfurOBP2 = SfurOBP2 (Sogatella furcifera, UniProt V5T759); assay: biochemical; type: binding
Summary of the method: as §1

SfurOBP3 = SfurOBP3 (Sogatella furcifera, UniProt V5T818); assay: biochemical; type: binding; conditions: for Fluorescence competitive binding assay, fluorescence intensity: OBP3, three replicate columns
Summary of the method: as §1

S. furcifera adults = assay: Y-tube olfactometer behavioral trials; type: in vivo, Sogatella furcifera; conditions: odorant 50 µL/L vs hexane; adults
Summary of the method: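 Single S. furcifera adults (2 days post-emergence, starved 0.5 h) chose between odorant (100 µL of 50 µL/L on filter paper) and hexane control in a glass Y-tube, charcoal-filtered humidified air 300 mL/min per arm, 25 ± 1 °C, 50% RH. Choice scored if insect passed half an arm and stayed >1 min within 10 min; 45 insects per compound, chi-squared test.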

Sequence of SfurOBP2 (V5T759 entry or part of it): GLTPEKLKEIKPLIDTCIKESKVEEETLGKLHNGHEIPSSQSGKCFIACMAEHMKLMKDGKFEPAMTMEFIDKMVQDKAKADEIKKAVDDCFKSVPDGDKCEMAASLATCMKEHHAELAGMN
Sequence of SfurOBP3 (V5T818 entry or part of it): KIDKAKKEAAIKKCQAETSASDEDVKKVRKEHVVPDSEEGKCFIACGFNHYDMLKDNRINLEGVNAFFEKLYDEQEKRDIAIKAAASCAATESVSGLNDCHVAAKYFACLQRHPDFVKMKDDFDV
Sequence of SfurOBP11 (V5T6E3 entry or part of it): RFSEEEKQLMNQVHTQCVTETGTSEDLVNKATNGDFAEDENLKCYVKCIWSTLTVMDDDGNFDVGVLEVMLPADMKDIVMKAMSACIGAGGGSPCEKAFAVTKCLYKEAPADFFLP
Sequence of SfurOBP1 (V5T8N5 entry or part of it): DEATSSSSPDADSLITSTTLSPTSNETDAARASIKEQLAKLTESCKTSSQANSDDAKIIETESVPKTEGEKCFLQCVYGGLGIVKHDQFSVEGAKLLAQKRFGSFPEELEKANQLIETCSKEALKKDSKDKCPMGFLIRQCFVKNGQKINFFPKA

Fluorescence competitive binding assay, fluorescence intensity (SfurOBP1; ligand concentration 2 (μM)): 7802 and 7217 and 8367
Fluorescence competitive binding assay, fluorescence intensity (SfurOBP1; ligand concentration 4 (μM)): 10256 and 8383 and 7448
Fluorescence competitive binding assay, fluorescence intensity (SfurOBP1; ligand concentration 6 (μM)): 7755 and 7709 and 7657
Fluorescence competitive binding assay, fluorescence intensity (SfurOBP1; ligand concentration 8 (μM)): 8353 and 6725 and 6896
Fluorescence competitive binding assay, fluorescence intensity (SfurOBP1; ligand concentration 10 (μM)): 7309 and 7612 and 6541
Fluorescence competitive binding assay, fluorescence intensity (SfurOBP1; ligand concentration 12 (μM)): 7182 and 6932 and 8389
Fluorescence competitive binding assay, fluorescence intensity (SfurOBP1; ligand concentration 14 (μM)): 7695 and 6348 and 8106
Fluorescence competitive binding assay, fluorescence intensity (SfurOBP1; ligand concentration 16 (μM)): 7645 and 7087 and 7719
Fluorescence competitive binding assay, fluorescence intensity (SfurOBP1; ligand concentration 18 (μM)): 9286 and 8583 and 8604
Fluorescence competitive binding assay, fluorescence intensity (SfurOBP1; ligand concentration 20 (μM)): 13401 and 7898 and 7495
IC50 (SfurOBP1; SfurOBP1, protein and 1-NPN both 2.0 µM, competitor 2-20 µM, read-out: IC50): > 20 µM
IC50 (SfurOBP11; SfurOBP11, protein and 1-NPN both 2.0 µM, competitor 2-20 µM, read-out: IC50): > 20 µM
Fluorescence intensity, fluorescence competitive binding assay, OBP11 (SfurOBP11; ligand concentration 2, replicate 1): 31191
Fluorescence intensity, fluorescence competitive binding assay, OBP11 (SfurOBP11; ligand concentration 2, replicate 2): 27026
Fluorescence intensity, fluorescence competitive binding assay, OBP11 (SfurOBP11; ligand concentration 2, replicate 3): 27251
Fluorescence intensity, fluorescence competitive binding assay, OBP11 (SfurOBP11; ligand concentration 4, replicate 1): 33062
Fluorescence intensity, fluorescence competitive binding assay, OBP11 (SfurOBP11; ligand concentration 4, replicate 2): 32235
Fluorescence intensity, fluorescence competitive binding assay, OBP11 (SfurOBP11; ligand concentration 4, replicate 3): 30749
Fluorescence intensity, fluorescence competitive binding assay, OBP11 (SfurOBP11; ligand concentration 6, replicate 1): 33680
Fluorescence intensity, fluorescence competitive binding assay, OBP11 (SfurOBP11; ligand concentration 6, replicate 2): 31560
Fluorescence intensity, fluorescence competitive binding assay, OBP11 (SfurOBP11; ligand concentration 6, replicate 3): 31826
Fluorescence intensity, fluorescence competitive binding assay, OBP11 (SfurOBP11; ligand concentration 8, replicate 1): 29344
Fluorescence intensity, fluorescence competitive binding assay, OBP11 (SfurOBP11; ligand concentration 8, replicate 2): 31482
Fluorescence intensity, fluorescence competitive binding assay, OBP11 (SfurOBP11; ligand concentration 8, replicate 3): 30513
Fluorescence intensity, fluorescence competitive binding assay, OBP11 (SfurOBP11; ligand concentration 10, replicate 1): 29393
Fluorescence intensity, fluorescence competitive binding assay, OBP11 (SfurOBP11; ligand concentration 10, replicate 2): 28581
Fluorescence intensity, fluorescence competitive binding assay, OBP11 (SfurOBP11; ligand concentration 10, replicate 3): 27079
Fluorescence intensity, fluorescence competitive binding assay, OBP11 (SfurOBP11; ligand concentration 12, replicate 1): 26945
Fluorescence intensity, fluorescence competitive binding assay, OBP11 (SfurOBP11; ligand concentration 12, replicate 2): 26618
Fluorescence intensity, fluorescence competitive binding assay, OBP11 (SfurOBP11; ligand concentration 12, replicate 3): 27193
Fluorescence intensity, fluorescence competitive binding assay, OBP11 (SfurOBP11; ligand concentration 14, replicate 1): 24856
Fluorescence intensity, fluorescence competitive binding assay, OBP11 (SfurOBP11; ligand concentration 14, replicate 2): 26161
Fluorescence intensity, fluorescence competitive binding assay, OBP11 (SfurOBP11; ligand concentration 14, replicate 3): 27383
Fluorescence intensity, fluorescence competitive binding assay, OBP11 (SfurOBP11; ligand concentration 16, replicate 1): 23278
Fluorescence intensity, fluorescence competitive binding assay, OBP11 (SfurOBP11; ligand concentration 16, replicate 2): 23147
Fluorescence intensity, fluorescence competitive binding assay, OBP11 (SfurOBP11; ligand concentration 16, replicate 3): 23455
Fluorescence intensity, fluorescence competitive binding assay, OBP11 (SfurOBP11; ligand concentration 18, replicate 1): 27255
Fluorescence intensity, fluorescence competitive binding assay, OBP11 (SfurOBP11; ligand concentration 18, replicate 2): 25416
Fluorescence intensity, fluorescence competitive binding assay, OBP11 (SfurOBP11; ligand concentration 18, replicate 3): 25774
Fluorescence intensity, fluorescence competitive binding assay, OBP11 (SfurOBP11; ligand concentration 20, replicate 1): 25007
Fluorescence intensity, fluorescence competitive binding assay, OBP11 (SfurOBP11; ligand concentration 20, replicate 2): 22862
Fluorescence intensity, fluorescence competitive binding assay, OBP11 (SfurOBP11; ligand concentration 20, replicate 3): 22028
IC50 (SfurOBP2; SfurOBP2, protein and 1-NPN both 2.0 µM, competitor 2-20 µM, read-out: IC50): > 20 µM
Fluorescence competitive binding assay, OBP2 (raw fluorescence reading) (SfurOBP2; ligand concentration 2 (unit not given), replicate column 1 of 3): 22495
Fluorescence competitive binding assay, OBP2 (raw fluorescence reading) (SfurOBP2; ligand concentration 2 (unit not given), replicate column 2 of 3): 22840
Fluorescence competitive binding assay, OBP2 (raw fluorescence reading) (SfurOBP2; ligand concentration 2 (unit not given), replicate column 3 of 3): 21233
Fluorescence competitive binding assay, OBP2 (raw fluorescence reading) (SfurOBP2; ligand concentration 4 (unit not given), replicate column 1 of 3): 23391
Fluorescence competitive binding assay, OBP2 (raw fluorescence reading) (SfurOBP2; ligand concentration 4 (unit not given), replicate column 2 of 3): 22604
Fluorescence competitive binding assay, OBP2 (raw fluorescence reading) (SfurOBP2; ligand concentration 4 (unit not given), replicate column 3 of 3): 23347
Fluorescence competitive binding assay, OBP2 (raw fluorescence reading) (SfurOBP2; ligand concentration 6 (unit not given), replicate column 1 of 3): 22973
Fluorescence competitive binding assay, OBP2 (raw fluorescence reading) (SfurOBP2; ligand concentration 6 (unit not given), replicate column 2 of 3): 22972
Fluorescence competitive binding assay, OBP2 (raw fluorescence reading) (SfurOBP2; ligand concentration 6 (unit not given), replicate column 3 of 3): 22119
Fluorescence competitive binding assay, OBP2 (raw fluorescence reading) (SfurOBP2; ligand concentration 8 (unit not given), replicate column 1 of 3): 20829
Fluorescence competitive binding assay, OBP2 (raw fluorescence reading) (SfurOBP2; ligand concentration 8 (unit not given), replicate column 2 of 3): 21110
Fluorescence competitive binding assay, OBP2 (raw fluorescence reading) (SfurOBP2; ligand concentration 8 (unit not given), replicate column 3 of 3): 19166
Fluorescence competitive binding assay, OBP2 (raw fluorescence reading) (SfurOBP2; ligand concentration 10 (unit not given), replicate column 1 of 3): 18739
Fluorescence competitive binding assay, OBP2 (raw fluorescence reading) (SfurOBP2; ligand concentration 10 (unit not given), replicate column 2 of 3): 19572
Fluorescence competitive binding assay, OBP2 (raw fluorescence reading) (SfurOBP2; ligand concentration 10 (unit not given), replicate column 3 of 3): 20059
Fluorescence competitive binding assay, OBP2 (raw fluorescence reading) (SfurOBP2; ligand concentration 12 (unit not given), replicate column 1 of 3): 18220
Fluorescence competitive binding assay, OBP2 (raw fluorescence reading) (SfurOBP2; ligand concentration 12 (unit not given), replicate column 2 of 3): 17338
Fluorescence competitive binding assay, OBP2 (raw fluorescence reading) (SfurOBP2; ligand concentration 12 (unit not given), replicate column 3 of 3): 19313
Fluorescence competitive binding assay, OBP2 (raw fluorescence reading) (SfurOBP2; ligand concentration 14 (unit not given), replicate column 1 of 3): 18807
Fluorescence competitive binding assay, OBP2 (raw fluorescence reading) (SfurOBP2; ligand concentration 14 (unit not given), replicate column 2 of 3): 18093
Fluorescence competitive binding assay, OBP2 (raw fluorescence reading) (SfurOBP2; ligand concentration 14 (unit not given), replicate column 3 of 3): 18015
Fluorescence competitive binding assay, OBP2 (raw fluorescence reading) (SfurOBP2; ligand concentration 16 (unit not given), replicate column 1 of 3): 15898
Fluorescence competitive binding assay, OBP2 (raw fluorescence reading) (SfurOBP2; ligand concentration 16 (unit not given), replicate column 2 of 3): 17144
Fluorescence competitive binding assay, OBP2 (raw fluorescence reading) (SfurOBP2; ligand concentration 16 (unit not given), replicate column 3 of 3): 15877
Fluorescence competitive binding assay, OBP2 (raw fluorescence reading) (SfurOBP2; ligand concentration 18 (unit not given), replicate column 1 of 3): 16375
Fluorescence competitive binding assay, OBP2 (raw fluorescence reading) (SfurOBP2; ligand concentration 18 (unit not given), replicate column 2 of 3): 13674
Fluorescence competitive binding assay, OBP2 (raw fluorescence reading) (SfurOBP2; ligand concentration 18 (unit not given), replicate column 3 of 3): 18894
Fluorescence competitive binding assay, OBP2 (raw fluorescence reading) (SfurOBP2; ligand concentration 20 (unit not given), replicate column 1 of 3): 16296
Fluorescence competitive binding assay, OBP2 (raw fluorescence reading) (SfurOBP2; ligand concentration 20 (unit not given), replicate column 2 of 3): 16765
Fluorescence competitive binding assay, OBP2 (raw fluorescence reading) (SfurOBP2; ligand concentration 20 (unit not given), replicate column 3 of 3): 17962
Fluorescence competitive binding assay, fluorescence intensity (SfurOBP3; ligand concentration 2): 61166 and 61638 and 64447
Fluorescence competitive binding assay, fluorescence intensity (SfurOBP3; ligand concentration 4): 63416 and 64552 and 59405
Fluorescence competitive binding assay, fluorescence intensity (SfurOBP3; ligand concentration 6): 55740 and 58561 and 59455
Fluorescence competitive binding assay, fluorescence intensity (SfurOBP3; ligand concentration 8): 58358 and 53959 and 58376
Fluorescence competitive binding assay, fluorescence intensity (SfurOBP3; ligand concentration 10): 51490 and 57535 and 53641
Fluorescence competitive binding assay, fluorescence intensity (SfurOBP3; ligand concentration 12): 51816 and 53317 and 52476
Fluorescence competitive binding assay, fluorescence intensity (SfurOBP3; ligand concentration 14): 50240 and 49815 and 48142
Fluorescence competitive binding assay, fluorescence intensity (SfurOBP3; ligand concentration 16): 46199 and 48600 and 42686
Fluorescence competitive binding assay, fluorescence intensity (SfurOBP3; ligand concentration 18): 47759 and 45050 and 48665
Fluorescence competitive binding assay, fluorescence intensity (SfurOBP3; ligand concentration 20): 47298 and 41425 and 41649
IC50 (SfurOBP3; SfurOBP3, protein and 1-NPN both 2.0 µM, competitor 2-20 µM, read-out: IC50): > 20 µM
SMILES: CCCCCCCCC=O [nonanal]
number of insects choosing hexane arm (S. furcifera adults): 12
number of insects choosing volatilies arm (S. furcifera adults): 17
number of insects failed (no choice) (S. furcifera adults): 11
